In one series the target is T1, hrMAO-B (Homo sapiens, UniProt P27338).
T1 construct: purchased Sigma–Aldrich
T1 sequence (P27338 1-520): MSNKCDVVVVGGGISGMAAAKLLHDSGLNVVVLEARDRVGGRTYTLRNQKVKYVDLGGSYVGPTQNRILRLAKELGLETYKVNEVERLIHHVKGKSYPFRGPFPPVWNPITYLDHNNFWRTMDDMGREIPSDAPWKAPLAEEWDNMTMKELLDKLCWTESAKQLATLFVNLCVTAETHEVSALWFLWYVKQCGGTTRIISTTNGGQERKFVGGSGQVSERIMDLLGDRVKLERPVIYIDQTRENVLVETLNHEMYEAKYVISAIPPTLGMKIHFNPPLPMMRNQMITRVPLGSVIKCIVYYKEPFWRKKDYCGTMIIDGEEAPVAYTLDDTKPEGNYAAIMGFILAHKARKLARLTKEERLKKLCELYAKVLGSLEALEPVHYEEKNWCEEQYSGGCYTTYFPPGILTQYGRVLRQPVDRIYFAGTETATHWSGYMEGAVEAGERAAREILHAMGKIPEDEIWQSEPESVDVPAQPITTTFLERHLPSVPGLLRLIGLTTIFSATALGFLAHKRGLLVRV
Briefly: Inhibition of monoamine oxidase B (Amplex UltraRed, tyramine). The conditions noted are these: for Selectivity Index (MAO-A/MAO-B): ratio IC50 MAO-A/IC50 MAO-B. The series is classed as biochemical.

Series [1] in a line: Blood–brain barrier permeation assay (PAMPA). The conditions noted are these: BBB permeability class from Pe. For orientation: The PAMPA barrier holds no transporters, so it reflects passive diffusion.
Protocol: (§1) Briefly, permeability of the compounds was measured at an initial concentration of 100 µM, including positive and negative controls (Supplementary Data; Table S3). […] After 5 min, 180 µL of each compound solution in PBS (10 mM, pH 7.4) was added to determine their ability to pass the membrane (VD). The 96-well acceptor plate (Multiscreen, Millipore Corp., Madrid Spain) was loaded with 180 µL of PBS (VA). Then, the donor filter plate was carefully placed on the acceptor plate to form a sandwich-like system, which was left undisturbed for 4 h at room temperature. After incubation, the donor plate was removed and the absorbance at the maximum absorption wavelength for each compound was recorded in both the acceptor and donor wells (150 µL/well) using a UV plate reader SPECTROstar Nano (BMG Labtech, Ortenberg, Germany). Concentration of the compounds in the donor and acceptor plates and equilibrium concentration were calculated and expressed as permeability (Pe) according the Equation (1). Results are expressed as mean ± standard error of the mean (SEM) of at least three different experiments in duplicate:(1) logPe =log{C×−ln(1−[drug]acceptor/[drug]equilibrium)} where C=(VD×VA/(VD +VA)×Area×Time) .
The nature of series [2]: Oxygen radical absorbance capacity (ORAC) assay. The conditions noted are these: Trolox equivalents; AAPH, fluorescein. On the procedure: The ORAC test was performed to evaluate the oxygen free radical scavenger capacity of the compounds. […] Compounds at desired concentrations (0.03, 0.1, 0.3, 1, 3, and 10 µM) were diluted in phosphate-buffered saline (PBS; 10 mM, pH 7.4) at 37 °C and placed in a 96 black flat bottom well plate. […] A fluorescence measurement was done first to determine the basal signal. Then, 25 µL of 2, 2′-azobis-amidinopropane dihydrochloride (AAPH) (12 mM final concentration) was quickly added. All samples were measured in duplicates in three different experiments. […] Results were expressed in terms of Trolox equivalents (T.eq.), obtained by plotting net AUC versus compound concentration, then performing linear regression and normalizing slopes of the compounds considering Trolox as reference.

The test system of series [3] is blood-brain barrier (passive diffusion). Briefly: in vitro. The conditions noted are these: PAMPA, pH 7.4.
Protocol: as §1
The test system is the same in series [4]. Put plainly: Blood–brain barrier permeation assay (PAMPA). The conditions noted are these: PAMPA, pH 7.4.
Protocol: as §1
The next series concerns rat striatal slices. Put plainly: Rat striatal slices exposed to rotenone: ROS production. The conditions noted are these: compound 10 µM, rotenone 10 µM, 4 h. The series is classed as cell-based. On the procedure:
Three- to four-month-old Sprague–Dawley rats were decapitated, the brain was removed, and the two brain hemispheres were separated. Each hemisphere was then cut into 300-µm coronal slices using a McIlwain Tissue Chopper (Cavey Laboratory Engineering, Surrey, UK) and separated in a previously oxygenated (95% O2 and 5% CO2) ice-cold Krebs’s dissection buffer (120 mM of NaCl; 2 mM of KCl; 26 mM of NaHCO3; 1.18 mM of KH2PO4; 10 mM of MgSO4; 0.5 mM of CaCl2; 11 mM of glucose; and 200 mM sucrose at pH 7.4) using a Leica SE6 microscope (Leica, Madrid, Spain). Striatum-containing slices were selected and immediately incubated for stabilization in dissection buffer without sucrose, bubbled with 95% O2 and 5% CO2 for 45 min at 34 °C, allowing slices to recover from slicing injury. […] Finally, cell death and the ROS production were measured.
ROS quantification was performed using the fluorescent probe 2,7′-dichlorodihydrofluorescein diacetate (H2DCFDA, λEx/Em = 495/529 nm; Thermo Fisher, Madrid, Spain). Cell death quantification was performed using the fluorescent probe propidium iodide (PI, λEx/Em = 535/617 nm; Thermo Fisher, Madrid, Spain). […] Fluorescence from striatum slices was then recorded for H2DCFDA (λEx/Em = 495/529 nm), PI (λEx/Em = 535/617 nm), and Hoechst (λEx/Em = 350/461 nm), in an inverted Nikon Eclipse T2000-U microscope (Nikon, Tokyo, Japan). […]

A further series relates to SH-SY5Y. The settings on record: MTT reduction. On the procedure: They were recovered by centrifugation at 800 rpm for 10 min. Cells from the third to twelfth passage were seeded at a density of 80,000 cells/well in 96-well plates for the neuroprotection studies.
Basal absorbance was set to 100% and results were normalized to basal conditions.
Cytotoxicity. LD50 values in several cell cultures employed
Table S2. Cytotoxicity elicited by 10-18 compounds in SH-SY5Y, AREc32 and mixed pr imary glial cultures. Viability was measured as MTT reduction in presence of increasing concentrations of der ivatives. LD50 values were calcula ted from dose-response curves. Data are expr essed as mean ± SEM of at least 3 independent experiments.
1.3. PAMPA control compounds (BBB permeability)
Table S3. Pr ediction of the BBB passive permeability of control compounds
On the technique in general: Formazan colour is commonly taken as a measure of viable cells.

For a further series, the target named is T2, MAO-B (Homo sapiens, UniProt P27338).
T2 construct: purchased Sigma–Aldrich
T2 sequence (P27338 1-520): T1 sequence (P27338 1-520)
Put plainly: MAO-B reversibility assay (pre-incubation times). The series is classed as biochemical. The conditions noted are these: 0, 15, 30 min pre-incubation at […] IC50.

Setting [5] is: 30 min pre-incubation, 37 °C, read-out: IC50 MAO-B.

Molecules are shown by their SMILES. Where two headings read alike, the source gives them in different places.

One may read the IC50 as the concentration that inhibits the measured activity by half. Usually Papp stands for a coefficient for how fast a substance crosses the barrier. Read a low Papp as slow passage. Consider `C#CCNCCc1c[nH]c2ccc(OC)cc12` [Compound 10, N-(2-(5-Methoxy-1H-indol-3-yl)ethyl)prop-2-yn-1-amine], for which, at hrMAO-B, half-maximal inhibition (IC50) was put at 77.6 ± 9.1 µM and the “Selectivity Index (MAO-A/MAO-B)” value turned out to be 0.0106. The MAO isozyme selectivity result on hrMAO-B (MAO-B vs MAO-A) is reported as “MAO-A selectivity”. The “PAMPA Prediction” value in series [1] is on record as “CNS + (CNS + (high BBB permeability): Pe (10^−6 cm s^−1) > 4.0)”. Besides, the “ORAC (T. eq.)” value in series [2] stood at 2.47 ± 0.13 T. eq. Further, the apparent permeability (Papp) in series [3] was determined as 12.3 ± 0.62 ×10⁻⁶ cm/s.

With `C#CCN(CC#C)CCc1c[nH]c2ccc(OC)cc12` [Compound 13, N-(2-(5-Methoxy-1H-indol-3-yl)ethyl)-N-(prop-2-yn-1-yl)prop-2-yn-1-amine], on hrMAO-B, the IC50 came out at 89.1 ± 4.3 µM and the “Selectivity Index (MAO-A/MAO-B)” value is recorded as more than 1.12. Also, the “PAMPA Prediction” value in series [1] is “CNS + (CNS + (high BBB permeability): Pe (10^−6 cm s^−1) > 4.0)”. For the same compound, the “ORAC (T. eq.)” value in series [2] amounted to 2.09 ± 0.11 T. eq. Besides, the apparent permeability (Papp) in series [3] turned out to be 20.3 ± 7.5 ×10⁻⁶ cm/s.

Turning to `C#CCN(CC#C)CCc1c[nH]c2ccc(OC(=O)C=Cc3ccccc3)cc12` [Compound 14, 3-(2-(Di(prop-2-yn-1-yl)amino)ethyl)-1H-indol-5-yl Cinnamate], at hrMAO-B (setting [5]), the IC50 was 17 ± 1.6 µM. This compound yielded a Papp at 4 h, 100 µM in series [4] of 4.15 ± 1.8 ×10⁻⁶ cm/s. Also, in series [1], the “PAMPA Prediction” value is on record as “CNS + (CNS + (high BBB permeability): Pe (10^−6 cm s^−1) > 4.0)”. For the same compound, the “ROS levels (H2DCFDA), rotenone model” value in the series with rat striatal slices is listed as “reduced”. Further, in the series on SH-SY5Y, the “LD50 (µM) SH-SY5Y” value was 66.5 ± 9.8 µM. Besides, in series [2], the “ORAC (T. eq.)” value was 1.98 ± 0.15 T. eq. Moreover, at MAO-B, the MAO-B inhibition reversibility entry is reported as “reversible inhibition”.

On to `C#CCN(CC#C)CCc1c[nH]c2ccc(OC(=O)/C=C/c3ccc(C)cc3)cc12` [Compound 15, 3-(2-(Di(prop-2-yn-1-yl)amino)ethyl)-1H-indol-5-yl-(E)-3-(p-tolyl) Acrylate], for which the IC50 at hrMAO-B (setting [5]) was determined as 28.1 ± 0.6 µM. Moreover, the apparent permeability (Papp) at 4 h, 100 µM in series [4] came to 4.46 ± 1.9 ×10⁻⁶ cm/s. For the same compound, in series [1], the “PAMPA Prediction” value is given as “CNS + (CNS + (high BBB permeability): Pe (10^−6 cm s^−1) > 4.0)”. Further, the “LD50 (µM) SH-SY5Y” value in the series on SH-SY5Y turned out to be 48.3 ± 6.6 µM. Besides, the “ORAC (T. eq.)” value in series [2] was determined as 1.74 ± 0.10 T. eq.

Values taken from PMC8868346, “Novel Series of Dual NRF2 Inducers and Selective MAO-B Inhibitors for the Treatment of Parkinson’s Disease” (Antioxidants, 2022).
